Results from ChEMBL document CHEMBL5579888, “A Comparative Study on the DNA Interactions and Biological Activities of Benzophenanthridine and Protoberberine Alkaloids” (J Nat Prod, 2024).
The source made the active and inactive calls. The calls are words filed in the database; no cut-off is given here.

What was measured:
[1] = system: A-375; assay: Inhibition of DNA synthesis in human A-375 cells at 5 uM incubated for 24 hrs by Edu incorporation based flow cytometry analysis; format: functional, cell-based
[2] = system: A-375; assay: Induction of cell cycle arrest in human A-375 cells assessed assessed as cell accumulation at G0/G1 phase at 5 uM incubated for 24 hrs by propidium iodide staining based flow cytometry (reference value: 54.25 %); format: functional
[3] = biological target: dsDNA; assay: Binding affinity to double stranded DNA ssab1 (unknown origin) incubated for 0.5 hrs in presence of different concentration DNA by fluorescence spectra analysis; format: nucleic-acid assay
[4] = system: Quadruplex DNA; assay: Binding affinity to human G4-quadruplex c-kit2 DNA 5'- CGGGCGGGCGCGAGGGAGGGT-3' assessed as change in fluorescence intensity at 1 uM incubated for 0.5 hrs by fluorescence spectra analysis; format: nucleic-acid assay
[5] = biological target: dsDNA; assay: Binding affinity to double stranded DNA AT17 (unknown origin) incubated for 0.5 hrs in presence of different concentration DNA by fluorescence spectra analysis; format: nucleic-acid assay
[6] = system: Quadruplex DNA; assay: Binding affinity to human G4-quadruplex Bcl2 DNA 5'- CGGGCGCGGGAGGAAGGGGGCGGGAGC-3' assessed as change in fluorescence intensity at 1 uM incubated for 0.5 hrs by fluorescence spectra analysis; format: nucleic-acid assay
[7] = system: Quadruplex DNA; assay: Binding affinity to human G4-quadruplex KRAS DNA 5'- AGGGCGGTGTGGGAAGAGGGAAGAGGGGGAGG-3' assessed as change in fluorescence intensity at 1 uM incubated for 0.5 hrs by fluorescence spectra analysis; format: nucleic-acid assay
[8] = system: dsDNA; assay: Binding affinity to double stranded DNA ssab (unknown origin) assessed as change in fluorescence intensity at 1 uM incubated for 0.5 hrs by fluorescence spectra analysis; format: nucleic-acid assay
[9] = biological target: Quadruplex DNA; assay: Binding affinity to human G4-quadruplex Pu27 DNA 5'- TGGGGAGGGTGGGGAGGGTGGGGAAGG-3' assessed as change in fluorescence intensity at 1 uM incubated for 0.5 hrs in presence of different concentrations of DNA by fluorescence spectra analysis; format: nucleic-acid assay
[10] = system: Quadruplex DNA; assay: Binding affinity to human G4-quadruplex Oxy28 DNA 5'- GGGGTTTTGGGGTTTTGGGGTTTTGGGG -3' at 20 uM by UV-Visible absorption spectroscopic analysis; format: nucleic-acid assay
[11] = biological target: dsDNA; assay: Binding affinity to double stranded DNA ssab3 (unknown origin) incubated for 0.5 hrs in presence of different concentration DNA by fluorescence spectra analysis; format: nucleic-acid assay
[12] = biological target: Quadruplex DNA; assay: Displacement of ThT from human G4-quadruplex 22AG DNA 5'- AGGGTTAGGGTTAGGGTTAGGG -3' incubated for 0.5 hrs by SpectraMax M2 microplate reader analysis; format: nucleic-acid assay
[13] = system: A-375; assay: Induction of cell cycle arrest in human A-375 cells assessed assessed as cell accumulation at S phase at 5 uM incubated for 24 hrs by propidium iodide staining based flow cytometry (reference value: 30.05 %); format: functional
[14] = biological target: Quadruplex DNA; assay: Displacement of ThT from human G4-quadruplex Bcl2 DNA 5'- CGGGCGCGGGAGGAAGGGGGCGGGAGC-3' incubated for 0.5 hrs by SpectraMax M2 microplate reader analysis; format: nucleic-acid assay
[15] = system: Quadruplex DNA; assay: Binding affinity to human G4-quadruplex c-kit2 DNA 5'- CGGGCGGGCGCGAGGGAGGGT-3' at 20 uM by UV-Visible absorption spectroscopic analysis; format: nucleic-acid assay
[16] = system: Quadruplex DNA; assay: Binding affinity to human G4-quadruplex Pu27 DNA 5'- TGGGGAGGGTGGGGAGGGTGGGGAAGG-3' assessed as change in fluorescence intensity at 1 uM incubated for 0.5 hrs by fluorescence spectra analysis; format: nucleic-acid assay
[17] = system: Quadruplex DNA; assay: Binding affinity to human G4-quadruplex 22AG DNA 5'- AGGGTTAGGGTTAGGGTTAGGG -3' assessed as change in fluorescence intensity at 1 uM incubated for 0.5 hrs by fluorescence spectra analysis; format: nucleic-acid assay
[18] = biological target: Quadruplex DNA; assay: Binding affinity to human G4-quadruplex c-kit2 DNA 5'- CGGGCGGGCGCGAGGGAGGGT-3' assessed as change in fluorescence intensity at 1 uM incubated for 0.5 hrs in presence of different concentrations of DNA by fluorescence spectra analysis; format: nucleic-acid assay
[19] = biological target: dsDNA; assay: Binding affinity to double stranded DNA ssab (unknown origin) incubated for 0.5 hrs in presence of different concentration DNA by fluorescence spectra analysis; format: nucleic-acid assay
[20] = biological target: Quadruplex DNA; assay: Binding affinity to human G4-quadruplex Oxy28 DNA 5'- GGGGTTTTGGGGTTTTGGGGTTTTGGGG -3' assessed as change in fluorescence intensity at 1 uM incubated for 0.5 hrs in presence of different concentrations of DNA by fluorescence spectra analysis; format: nucleic-acid assay
[21] = biological target: Quadruplex DNA; assay: Displacement of ThT from human G4-quadruplex VEGF DNA 5'- GGGCGGGCCGGGGGCGGG-3' incubated for 0.5 hrs by SpectraMax M2 microplate reader analysis; format: nucleic-acid assay
[22] = system: A-375; assay: Induction of apoptosis in human A-375 cells assessed assessed as early apoptotic cells at 5 uM incubated for 24 hrs by Annexin V-Elab Fluor 647/propidium iodide staining based flow cytometry (reference value: 1.14 %); format: functional
[23] = biological target: dsDNA; assay: Binding affinity to double stranded DNA AT15-4AT (unknown origin) incubated for 0.5 hrs in presence of different concentration DNA by fluorescence spectra analysis; format: nucleic-acid assay
[24] = system: A-375; assay: Induction of apoptosis in human A-375 cells assessed assessed as late apoptotic cells at 5 uM incubated for 24 hrs by Annexin V-Elab Fluor 647/propidium iodide staining based flow cytometry (reference value: 6.31 %); format: functional
[25] = biological target: Salmon testes DNA; assay: Displacement of Hoechst 33342 from salmon sperm DNA incubated for 0.5 hrs by SpectraMax M2 microplate reader analysis; format: nucleic-acid assay, Salmo salar
[26] = biological target: dsDNA; assay: Binding affinity to double stranded DNA AT15-6AT (unknown origin) incubated for 0.5 hrs in presence of different concentration DNA by fluorescence spectra analysis; format: nucleic-acid assay
[27] = biological target: Quadruplex DNA; assay: Binding affinity to human G4-quadruplex VEGF DNA 5'- GGGCGGGCCGGGGGCGGG-3' assessed as change in fluorescence intensity at 1 uM incubated for 0.5 hrs in presence of different concentrations of DNA by fluorescence spectra analysis; format: nucleic-acid assay
[28] = system: A-375; assay: Induction of apoptosis in human A-375 cells assessed assessed as necrotic cells at 5 uM incubated for 24 hrs by Annexin V-Elab Fluor 647/propidium iodide staining based flow cytometry (reference value: 1.45 %); format: functional
[29] = system: Quadruplex DNA; assay: Binding affinity to human G4-quadruplex KRAS DNA 5'- AGGGCGGTGTGGGAAGAGGGAAGAGGGGGAGG-3' at 10 uM by CD spectra analysis; format: nucleic-acid assay
[30] = system: A-375; assay: Induction of cell cycle arrest in human A-375 cells assessed assessed as cell accumulation at G2/M phase at 5 uM incubated for 24 hrs by propidium iodide staining based flow cytometry (reference value: 15.70 %); format: functional
[31] = system: dsDNA; assay: Binding affinity to double stranded DNA ssab (unknown origin) at 20 uM by UV-Visible absorption spectroscopic analysis; format: nucleic-acid assay
[32] = system: Quadruplex DNA; assay: Binding affinity to human G4-quadruplex KRAS DNA 5'- AGGGCGGTGTGGGAAGAGGGAAGAGGGGGAGG-3' at 20 uM by UV-Visible absorption spectroscopic analysis; format: nucleic-acid assay
[33] = system: dsDNA; assay: Binding affinity to double stranded DNA AT15 (unknown origin) incubated for 0.5 hrs in presence of different concentration DNA by fluorescence spectra analysis; format: nucleic-acid assay

With `COc1ccc2cc3[n+](cc2c1OC)CCc1cc2c(cc1-3)OCO2` [BERBERINE] the inhibition [1] was “inactive”, the Activity [2] was 56.99% and the EC50 [3] was 450 nM. For the same compound, the Activity [4] was “Active”, the EC50 [5] was 720 nM and the Activity [6] was “Active”. The Activity [7] was “Active”, the Activity [8] was “inactive” and the Kd [9] was 5400 nM. The Activity [10] was “Active”, the EC50 [11] was 230 nM and the DC50 [12] was 23500 nM. For the same compound, the Activity [13] was 28.42%, the Kd [14] was 1840 nM and the Activity [15] was “Active”. For the same compound, the Activity [16] was “Active”, the Activity [17] was “Active” and the Kd [18] was 4220 nM. It also gave an EC50 [19] of 1040 nM, a Kd [20] of 1670 nM and a DC50 [21] of 580 nM. For the same compound, the Activity [22] was 1.28%, the EC50 [23] was 230 nM and the Activity [24] was 7.26%. For the same compound, the DC50 [25] was 56600 nM, the EC50 [26] was 400 nM and the Kd [27] was 4960 nM. For the same compound, the Activity [28] was 56.1%, the Activity [29] was “inactive” and the Activity [30] was 14.59%. The Activity [31] was “inactive”, the Activity [32] was “Active” and the Activity [33] was “inactive”.

For `COc1ccc2c(c[n+](C)c3c4cc5c(cc4ccc23)OCO5)c1OC` [CHELERYTHRINE], the inhibition [1] was “Active”, the Activity [2] was 36.15% and the EC50 [3] was 970 nM. The Activity [4] was “Active”, the EC50 [5] was 3890 nM and the Activity [6] was “Active”. For the same compound, the Activity [7] was “Active”, the Activity [8] was “Active” and the Kd [9] was 5290 nM. The Activity [10] was “Active”, the EC50 [11] was 1290 nM and the DC50 [12] was 3040 nM. The Activity [13] was 33.02%, the Kd [14] was 860 nM and the Activity [15] was “Active”. The Activity [16] was “Active”, the Activity [17] was “Active” and the Activity [18] was “inactive”. The EC50 [19] was 1060 nM, the Activity [20] was “inactive” and the DC50 [21] was 410 nM. The Activity [22] was 1.84%, the EC50 [23] was 1150 nM and the Activity [24] was 35.2%. For the same compound, the DC50 [25] was 6470 nM, the EC50 [26] was 1090 nM and the Activity [27] was “inactive”. The Activity [28] was 6.96%, the Activity [29] was “inactive” and the Activity [30] was 30.83%. For the same compound, the Activity [31] was “Active”, the Activity [32] was “Active” and the EC50 [33] was 1130 nM.

`c1c2c(cc3c1OCO3)-c1cc3ccc4c(c3c[n+]1CC2)OCO4` [COPTISINE] was tested, and the inhibition [1] was “inactive”, the Activity [2] was 57.31% and the EC50 [3] was 9390 nM. The Activity [4] was “Active”, the EC50 [5] was 7780 nM and the Activity [6] was “Active”. For the same compound, the Activity [7] was “Active”, the Activity [8] was “inactive” and the Kd [9] was 2170 nM. The Activity [10] was “Active”, the EC50 [11] was 5840 nM and the DC50 [12] was 1970 nM. The Activity [13] was 28.21%, the Kd [14] was 350 nM and the Activity [15] was “Active”. For the same compound, the Activity [16] was “Active”, the Activity [17] was “Active” and the Kd [18] was 2590 nM. It also gave an EC50 [19] of 5570 nM, a Kd [20] of 980 nM and a DC50 [21] of 120 nM. The Activity [22] was 0%, the EC50 [23] was 5570 nM and the Activity [24] was 15.3%. The DC50 [25] was 38100 nM, the EC50 [26] was 8040 nM and the Kd [27] was 3390 nM. The Activity [28] was 84.6%, the Activity [29] was “inactive” and the Activity [30] was 14.48%. The Activity [31] was “inactive”, the Activity [32] was “Active” and the EC50 [33] was 1690 nM.

`C[n+]1cc2c3c(ccc2c2ccc4cc5c(cc4c21)OCO5)OCO3` [SANGUINARIUM] was tested, and the inhibition [1] was “Active”, the Activity [2] was 40.85% and the EC50 [3] was 790 nM. For the same compound, the Activity [4] was “Active”, the EC50 [5] was 2330 nM and the Activity [6] was “Active”. For the same compound, the Activity [7] was “Active”, the Activity [8] was “Active” and the Kd [9] was 7190 nM. The Activity [10] was “Active”, the EC50 [11] was 1480 nM and the DC50 [12] was 2760 nM. The Activity [13] was 31.29%, the Kd [14] was 440 nM and the Activity [15] was “Active”. The Activity [16] was “Active”, the Activity [17] was “Active” and the Activity [18] was “inactive”. For the same compound, the EC50 [19] was 740 nM, the Activity [20] was “inactive” and the DC50 [21] was 140 nM. It also gave an Activity [22] of 0.84%, an EC50 [23] of 770 nM and an Activity [24] of 49.5%. For the same compound, the DC50 [25] was 5700 nM, the EC50 [26] was 1230 nM and the Activity [27] was “inactive”. The Activity [28] was 29.3%, the Activity [29] was “inactive” and the Activity [30] was 27.86%. The Activity [31] was “Active”, the Activity [32] was “Active” and the EC50 [33] was 610 nM.
